Biological target: T1, human Cot catalytic domain (30-397 amino acids) (Homo sapiens, UniProt P41279)
T1 construct: Purified recombinant human Cot catalytic domain (30-397 amino acids) was purchased from Cama Biosciences; purchased Cama Biosciences (so in the source)
Assay: High Throughput Cot Biochemical Assay (KinEASE TR-FRET)
Details: Cot KinEASE TR-FRET, 400 μM ATP; read-out: IC50 HTRF
How it was run: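 First, purified human Cot (aa 30-397) at 5 nM phosphorylates an XL665-labeled STK3 peptide (1 μM) at 400 μM ATP, pH 7.0, 0.1% DMSO. Then a europium-conjugated phospho-specific antibody binds the product, giving the TR-FRET signal.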

T1 sequence (P41279 30-397): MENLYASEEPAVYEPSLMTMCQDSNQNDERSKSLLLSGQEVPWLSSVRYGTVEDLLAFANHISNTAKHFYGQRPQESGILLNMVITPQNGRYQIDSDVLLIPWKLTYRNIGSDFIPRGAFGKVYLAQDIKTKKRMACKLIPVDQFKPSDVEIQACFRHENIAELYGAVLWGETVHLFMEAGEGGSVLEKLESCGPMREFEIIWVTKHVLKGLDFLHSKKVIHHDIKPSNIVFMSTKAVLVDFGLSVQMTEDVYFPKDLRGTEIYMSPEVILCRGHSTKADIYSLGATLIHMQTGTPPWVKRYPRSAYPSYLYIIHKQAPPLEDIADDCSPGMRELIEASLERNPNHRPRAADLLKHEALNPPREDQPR

Row | SMILES | IC50 [nM]
1 | N#Cc1cnc2c(Cl)cc(NC(c3ccc(Cl)cc3)c3cn([C@@H]4CCN(C(=O)OCc5ccccc5)C4)nn3)cc2c1Nc1ccc(F)c(Cl)c1 (stereo partly drawn) [Example 866, benzyl (3R)-3-(4-(((8-chloro-4-((3-chloro-4-fluorophenyl)amino)-3-cyanoquinolin-6-yl)amino)(4-chlorophenyl)methyl)-1H-1,2,3-triazol-1-yl)pyrrolidine-1-carboxylate] | 2100
2 | N#Cc1cnc2c(Cl)cc(NC(c3ccc(Cl)cc3)c3cn([C@@H]4CCNC4)nn3)cc2c1Nc1ccc(F)c(Cl)c1 (stereo partly drawn) [Example 867, 8-chloro-4-((3-chloro-4-fluorophenyl)amino)-6-(((4-chlorophenyl)(1-((R)-pyrrolidin-3-yl)-1H-1,2,3-triazol-4-yl)methyl)amino)quinoline-3-carbonitrile] | 46
3 | CCN1CC[C@@H](n2cc(C(Nc3cc(Cl)c4ncc(C#N)c(Nc5ccc(F)c(Cl)c5)c4c3)c3ccc(Cl)cc3)nn2)C1 (stereo partly drawn) [Example 868, 8-chloro-4-((3-chloro-4-fluorophenyl)amino)-6-(((4-chlorophenyl)(1-((R)-1-ethylpyrrolidin-3-yl)-1H-1,2,3-triazol-4-yl)methyl)amino)quinoline-3-carbonitrile] | 119
4 | CCN1CC(n2cc(C(Nc3cc(Cl)c4ncc(C#N)c(Nc5ccc(F)c(Cl)c5)c4c3)c3ccc(F)cc3)nn2)C1 (stereo not drawn) [Example 870, 8-chloro-4-((3-chloro-4-fluorophenyl)amino)-6-(((1-(1-ethylazetidin-3-yl)-1H-1,2,3-triazol-4-yl)(4-fluorophenyl)methyl)amino) quinoline-3-carbonitrile] | 27
5 | CCN1CC(n2cc(C(Nc3cc(Cl)c4ncc(C#N)c(Nc5ccc(F)c(Cl)c5)c4c3)c3ccc(Cl)cc3)nn2)C1 (stereo not drawn) [Example 871, 8-chloro-4-((3-chloro-4-fluorophenyl)amino)-6-(((4-chlorophenyl)(1-(1-ethylazetidin-3-yl)-1H-1,2,3-triazol-4-yl)methyl)amino)quinoline-3-carbonitrile] | 90
6 | N#Cc1cnc2c(Cl)cc(NC(c3cc(C(F)(F)F)cc(C(F)(F)F)c3)c3cn(C4CCNCC4)nn3)cc2c1Nc1ccc(F)c(Cl)c1 (stereo not drawn) [Example 874, 6-(((3,5-bis(trifluoromethyl)phenyl)(1-(piperidin-4-yl)-1H-1,2,3-triazo1-4-yl)methyl)amino)-8-chloro-4-((3-chloro-4-fluorophenyl)amino)quinoline-3-carbonitrile] | 97
7 | N#Cc1cnc2c(Cl)cc(NC(c3cc(F)c(F)c(F)c3)c3cn(C4CCNCC4)nn3)cc2c1Nc1ccc(F)c(Cl)c1 (stereo not drawn) [Example 875, 8-chloro-4-((3-chloro-4-fluorophenyl)amino)-6-(((1-(piperidin-4-yl)-1H-1,2,3-triazol-4-yl)(3,4,5-trifluorophenyl)methyl)amino) quinoline-3-carbonitrile] | 66
8 | N#Cc1cnc2c(Cl)cc(NC(c3ccc(F)cc3)c3cn([C@H]4CCN(C(=O)OCc5ccccc5)C4)nn3)cc2c1Nc1ccc(F)c(Cl)c1 (stereo partly drawn) [Example 876, benzyl (3S)-3-(4-(((8-chloro-4-((3-chloro-4-fluorophenyl)amino)-3-cyanoquinolin-6-yl)amino)(4-fluorophenyl)methyl)-1H-1,2,3-triazol-1-yl)pyrrolidine-1-carboxylate] | 385
9 | CCN1CC[C@H](n2cc(C(Nc3cc(Cl)c4ncc(C#N)c(Nc5ccc(F)c(Cl)c5)c4c3)c3ccc(F)cc3)nn2)C1 (stereo partly drawn) [Example 877, 8-chloro-4-((3-chloro-4-fluorophenyl)amino)-6-(((1-((S)-1-ethylpyrrolidin-3-yl)-1H-1,2,3-triazol-4-yl)(4-fluorophenyl)methyl)amino) quinoline-3-carbonitrile] | 47
10 | N#Cc1cnc2c(Cl)cc(NC(c3ccc(Cl)cc3)c3cn([C@H]4CCN(C(=O)OCc5ccccc5)C4)nn3)cc2c1Nc1ccc(F)c(Cl)c1 (stereo partly drawn) [Example 878, benzyl (3S)-3-(4-(((8-chloro-4-((3-chloro-4-fluorophenyl)amino)-3-cyanoquinolin-6-yl)amino)(4-chlorophenyl)methyl)-1H-1,2,3-triazol-1-yl)pyrrolidine-1-carboxylate] | 7700
11 | CCN1CC[C@H](n2cc(C(Nc3cc(Cl)c4ncc(C#N)c(Nc5ccc(F)c(Cl)c5)c4c3)c3ccc(Cl)cc3)nn2)C1 (stereo partly drawn) [Example 879, 8-chloro-4-((3-chloro-4-fluorophenyl)amino)-6-(((4-chlorophenyl)(1-((S)-1-ethylpyrrolidin-3-yl)-1H-1,2,3-triazol-4-yl)methyl)amino)quinoline-3-carbonitrile] | 101
12 | N#Cc1cnc2c(Cl)cc(NC(c3ccc(Cl)cc3)c3cn([C@H]4CCNC4)nn3)cc2c1Nc1ccc(F)c(Cl)c1 (stereo partly drawn) [Example 880, 8-chloro-4-((3-chloro-4-fluorophenyl)amino)-6-(((4-chlorophenyl)(1-((S)-pyrrolidin-3-yl)-1H-1,2,3-triazol-4-yl)methyl)amino)quinoline-3-carbonitrile] | 68
13 | Cc1cc(F)ccc1C(Nc1cc(Cl)c2ncc(C#N)c(Nc3ccc(F)c(Cl)c3)c2c1)c1cn(C2CCN(C(=O)OCc3ccccc3)CC2)nn1 (stereo not drawn) [Example 883, benzyl 4-(4-(((8-chloro-4-((3-chloro-4-fluorophenyl)amino)-3-cyanoquinolin-6-yl)amino)(4-fluoro-2-methylphenyl)methyl)-1H-1,2,3-triazol-1-yl) piperidine-1-carboxylate] | 6680
14 | N#Cc1cnc2c(Cl)cc(NC(c3ccc(F)cc3)c3cn(C4CCNCC4)nn3)cc2c1Nc1ccc(F)c(Cl)c1 (stereo not drawn) [Example 886, 8-chloro-4-((3-chloro-4-fluorophenyl)amino)-6-(((4-fluorophenyl)(1-(piperidin-4-yl)-1H-1,2,3-triazol-4-yl)methyl)amino)quinoline-3-carbonitrile] | 11
15 | N#Cc1cnc2c(Cl)cc(NC(c3ccccc3)c3c[nH]nn3)cc2c1Nc1ccc(F)c(Cl)c1 (stereo not drawn) [Example 888, 8-chloro-4-((3-chloro-4-fluorophenyl)amino)-6-((phenyl(1H-1,2,3-triazol-4-yl)methyl)amino)quinoline-3-carbonitrile] | 50
16 | N#Cc1cnc2c(Cl)cc(NC(c3cc(F)c(F)c(F)c3)c3cn(C4CCN(C(=O)OCc5ccccc5)CC4)nn3)cc2c1Nc1ccc(F)c(Cl)c1 (stereo not drawn) [Example 890, benzyl 4-(4-(((8-chloro-4-((3-chloro-4-fluorophenyl)amino)-3-cyanoquinolin-6-yl)amino)(3,4,5-trifluorophenyl)methyl)-1H-1,2,3-triazol-1-yl)piperidine-1-carboxylate] | > 10000
17 | Cn1cc(C(Nc2cc(Cl)c3ncc(C#N)c(Nc4ccc(F)c(Cl)c4)c3c2)c2ccc(F)c(F)c2)nn1 (stereo not drawn) [Example 891, 8-chloro-4-((3-chloro-4-fluorophenyl)amino)-6-(((3,4-difluorophenyl)(1-methyl-1H-1,2,3-triazol-4-yl)methyl)amino)quinoline-3-carbonitrile] | 30
18 | Cn1cc(C(Nc2cc(Cl)c3ncc(C#N)c(Nc4ccc(F)c(Cl)c4)c3c2)c2ccc(Cl)c(Cl)c2)nn1 (stereo not drawn) [Example 892, 8-chloro-4-((3-chloro-4-fluorophenyl)amino)-6-(((3,4-dichlorophenyl)(1-methyl-1H-1,2,3-triazol-4-yl)methyl)amino)quinoline-3-carbonitrile] | 78
19 | N#Cc1cnc2c(Cl)cc(NC(c3ccc(F)cc3)c3c[nH]nn3)cc2c1Nc1ccc(F)c(Cl)c1 (stereo not drawn) [Example 893, 8-chloro-4-((3-chloro-4-fluorophenyl)amino)-6-(((4-fluorophenyl)(1H-1,2,3-triazol-4-yl)methyl)amino)quinoline-3-carbonitrile] | 39
20 | N#Cc1cnc2c(Cl)cc(NC(c3ccc(OC(F)(F)F)cc3)c3cn(C4CCN(C(=O)OCc5ccccc5)CC4)nn3)cc2c1Nc1ccc(F)c(Cl)c1 (stereo not drawn) [Example 896, benzyl 4-(4-(((8-chloro-4-((3-chloro-4-fluorophenyl)amino)-3-cyanoquinolin-6-yl)amino)(4-(trifluoromethoxy)phenyl)methyl)-1H-1,2,3-triazol-1-yl)piperidine-1-carboxylate] | > 10000
21 | N#Cc1cnc2c(Cl)cc(NC(c3ccc(OC(F)(F)F)cc3)c3cn(C4CCNCC4)nn3)cc2c1Nc1ccc(F)c(Cl)c1 (stereo not drawn) [Example 897, 8-chloro-4-((3-chloro-4-fluorophenyl)amino)-6-(((1-(piperidin-4-yl)-1H-1,2,3-triazol-4-yl)(4-(trifluoromethoxy)phenyl)methyl)amino)quinoline-3-carbonitrile] | 59
22 | CCN1CCC(n2cc(C(Nc3cc(Cl)c4ncc(C#N)c(Nc5ccc(F)c(Cl)c5)c4c3)c3ccc(OC(F)(F)F)cc3)nn2)CC1 (stereo not drawn) [Example 898, 8-chloro-4-((3-chloro-4-fluorophenyl)amino)-6-(((1-(1-ethylpiperidin-4-yl)-1H-1,2,3-triazol-4-yl)(4-(trifluoromethoxy)phenyl)methyl)amino)quinoline-3-carbonitrile] | 40
23 | N#Cc1cnc2c(Cl)cc(NC(c3ccc(F)c(F)c3)c3cn(C4CCN(C(=O)OCc5ccccc5)CC4)nn3)cc2c1Nc1ccc(F)c(Cl)c1 (stereo not drawn) [Example 899, benzyl 4-(4-(((8-chloro-4-((3-chloro-4-fluorophenyl)amino)-3-cyanoquinolin-6-yl)amino)(3,4-difluorophenyl)methyl)-1H-1,2,3-triazol-1-yl)piperidine-1-carboxylate] | > 1000
24 | N#Cc1cnc2c(Cl)cc(NC(c3ccc(F)c(F)c3)c3cn(C4CCNCC4)nn3)cc2c1Nc1ccc(F)c(Cl)c1 (stereo not drawn) [Example 900, 8-chloro-4-((3-chloro-4-fluorophenyl)amino)-6-(((3,4-difluorophenyl)(1-(piperidin-4-yl)-1H-1,2,3-triazol-4-yl)methyl)amino)quinoline-3-carbonitrile] | 14
